Measured values published in patent US11261186B2, “Biaryl derivative as GPR120 agonist” (LG CHEM, LTD., priority 2014, dated 2022).
pEC50: −log10 of the molar value.

Each molecule was assayed against T1, hGPR120 (Homo sapiens, UniProt Q5NUL3) (assay: Measurement of Activity of GPR120 Agonist (Cell-Based Assay), Calcium 5 dye fluorescence). Settings: CHO-K1 cells expressing Ga16 and hGPR120.
T1 construct: expressed in transfected cells; host or cells: CHO-K1
T1 sequence (Q5NUL3 1-361): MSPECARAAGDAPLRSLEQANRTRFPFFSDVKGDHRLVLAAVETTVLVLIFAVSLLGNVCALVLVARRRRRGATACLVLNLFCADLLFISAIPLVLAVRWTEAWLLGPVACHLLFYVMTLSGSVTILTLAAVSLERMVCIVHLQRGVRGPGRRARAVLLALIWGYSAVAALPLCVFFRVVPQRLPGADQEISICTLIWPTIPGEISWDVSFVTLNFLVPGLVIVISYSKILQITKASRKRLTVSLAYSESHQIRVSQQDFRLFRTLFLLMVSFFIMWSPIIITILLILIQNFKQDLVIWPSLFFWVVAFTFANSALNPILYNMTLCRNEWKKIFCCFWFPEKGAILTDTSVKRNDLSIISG
How it was run: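 Fluorescence increase (Ex 485 nm, Em 525 nm) after agonist addition was calculated as relative percent of the 1% DMSO-only signal. Cells were CHO-K1 stably carrying Gα16 plus human GPR120, dye-loaded for 1 h after overnight (18 h) culture.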

pEC50 | SMILES
5.70 to 6.70 | O=C(O)CC1CCC(c2ccc(-c3cccnc3OC3CCCC3)cc2F)CC1 (centres unmarked) [Example 187, {4-[4-(2-cyclopentyloxy-pyridin-3-yl)-2-fluoro-phenyl]-cyclohexyl}-acetic acid]
> 6.70 | O=C(O)CCC1CC1c1c(F)cc(-c2cccnc2OCC2CCC2)cc1F (centres unmarked) [Example 189, 3-{2-[4-(2-cyclobutylmethoxy-pyridin-3-yl)-2,6-difluoro-phenyl]-cyclopropyl}-propanoic acid]
5.70 to 6.70 | O=C(O)CCC1CC1c1c(F)cc(-c2cccnc2OC2CCOCC2)cc1F (centres unmarked) [Example 190, 3-(2-{2,6-difluoro-4-[2-(tetrahydro-pyran-4-yloxy)-pyridin-3-yl]-phenyl}-cyclopropyl)-propanoic acid]
> 6.70 | O=C(O)CCC1CC1c1c(F)cc(-c2cccc(OCC3CC3)n2)cc1F (centres unmarked) [Example 191, 3-{2-[4-(6-cyclopropylmethoxy-pyridin-2-yl)-2,6-difluoro-phenyl]-cyclopropyl}-propanoic acid]
> 6.70 | CC(C)Sc1cccc(-c2ccc(C(F)(F)CCCC(=O)O)cc2)n1 [Example 192, 5,5-difluoro-5-[4-(6-isopropylsulfanyl-pyridin-2-yl)-phenyl]-pentanoic acid]
> 6.70 | CC1(C)Cc2c(cccc2-c2ccc(OCCCC(=O)O)cc2)O1 [Example 193, 4-[4-(2,2-dimethyl-2,3-dihydro-benzofuran-4-yl)-phenoxy]-butyric acid]
> 6.70 | CC1(C)Cc2c(cccc2-c2ccc(OCCCC(=O)O)c(F)c2)O1 [Example 194, 4-[4-(2,2-dimethyl-2,3-dihydro-benzofuran-4-yl)-2-fluoro-phenoxy]-butyric acid]
> 6.70 | CN(CCCC(=O)O)c1c(F)cc(-c2cccnc2SC2CCC2)cc1F [Example 195, 4-{[4-(2-cyclobutylsulfanyl-pyridin-3-yl)-2,6-difluoro-phenyl]-methyl-amino}-butyric acid]
> 6.70 | CN(CCCC(=O)O)c1c(F)cc(-c2cccnc2OC2CCCC2)cc1F [Example 196, 4-{[4-(2-cyclopentyloxy-pyridin-3-yl)-2,6-difluoro-phenyl]-methyl-amino}-butyric acid]
> 6.70 | CN(CCCC(=O)O)c1c(F)cc(-c2cccnc2SC2CCCC2)cc1F [Example 197, 4-{[4-(2-cyclopentylsulfanyl-pyridin-3-yl)-2,6-difluoro-phenyl]-methyl-amino}-butyric acid]
5.70 to 6.70 | O=C(O)CCCn1ccc2cc(-c3cccnc3SC3CCCC3)ccc21 [Example 200, 4-[5-(2-cyclopentylsulfanyl-pyridin-3-yl)-indol-1-yl]-butyric acid]
5.70 to 6.70 | CN(CCCC(=O)O)c1c(F)cc(-c2cccc(N3CCCC3)c2)cc1F [Example 201, 4-[(3,5-difluoro-3′-pyrrolidin-1-yl-biphenyl-4-yl)-methyl-amino]-butyric acid]
> 6.70 | CN(CCCC(=O)O)c1c(F)cc(-c2cccc(SC3CCC3)n2)cc1F [Example 202, 4-{[4-(6-cyclobutylsulfanyl-pyridin-2-yl)-2,6-difluoro-phenyl]-methyl-amino}-butyric acid]
> 6.70 | CN(CCCC(=O)O)c1c(F)cc(-c2cccc3c2OC(F)(F)O3)cc1F [Example 203, 4-{[4-(2,2-difluoro-benzo[1,3]dioxol-4-yl)-2,6-difluoro-phenyl]-methyl-amino}-butyric acid]
> 6.70 | CN(CCCC(=O)O)c1c(F)cc(-c2cccc(OC3CCCC3)n2)cc1F [Example 204, 4-{[4-(6-cyclopentyloxy-pyridin-2-yl)-2,6-difluoro-phenyl]-methyl-amino}-butyric acid]

SMILES | pEC50
O=C(O)CCC1CC1c1c(F)cc(-c2cccnc2OC2CCC2)cc1F (centres unmarked) [Example 188, 3-{2-[4-(2-cyclobutoxy-pyridin-3-yl)-2,6-difluoro-phenyl]-cyclopropyl}-propanoic acid] | > 6.70
CN(CCCC(=O)O)c1c(F)cc(-c2cccc(OC3CCC3)c2)cc1F [Example 199, 4-[(3′-cyclobutoxy-3,5-difluoro-biphenyl-4-yl)-methyl-amino]-butyric acid] | > 6.70
